The nature of data set [1]: CLint in minipig liver microsomes. The note with it: Gottingen, 1 mg/ml, NADPH. It counts as in vitro ADME. As to the method:
(§1) All incubations of subcellular fractions and recombinant enzymes were conducted at 37 °C and 800 rpm using a Hamilton Microlab Star liquid handling workstation (Hamilton Robotics (Bonaduz, Switzerland)).
(§2) Prior to initiation of the reaction by the addition of NADPH (final concentration 1 mM), an aliquot was removed from each incubation and quenched in ice cold methanol containing internal standard (referred to as T0). NADPH was subsequently added to this solution for matrix matching. The remaining reaction (with addition of NADPH) was allowed to proceed for 60 min. At 0.5, 5, 15, 30 and 60 min aliquots were sampled and quenched as above. Incubations were conducted in singlicate; control incubations (substituting PBS for NADPH) were conducted simultaneously.
(§3) For the purpose of CLint determination, samples were analysed using an Agilent 1290 Infinity ultra high-performance liquid chromatography (UHPLC) system coupled to an Agilent 6520 Quadrupole Time-of-flight mass spectrometer (Agilent Technologies, Stockport, UK). […]
(§4) In vitro data (parent compound LC-MS response) was fitted to a non-linear single exponential model using the software GraphPad Prism (v6.07, GraphPad Software, Inc., La Jolla, USA) to determine the elimination rate constant (k). CLint in hepatocytes and liver microsomes was calculated using Eqs. […]
A general note: Liver microsomes are vesicles of endoplasmic reticulum, rich in cytochrome P450 enzymes.

The nature of data set [2]: CLint in dog liver microsomes. It counts as in vitro ADME. As to conditions: Beagle, 1 mg/ml, NADPH. As to the method:
as §1, §2, §3, §4

For data set [3], the system named is MOLM-13 (human FLT3-ITD positive AML). Details: method as in Bavetsias et al., 2012. As to conditions: ref Bavetsias et al., 2012; cited from earlier work.
Details of data set [4]: method as in Bavetsias et al., 2012. As to conditions: mouse and rat; ref Bavetsias et al., 2012; cited from earlier work.
The nature of data set [5]: CLint in cryopreserved mouse hepatocyte suspensions. In kind it is in vitro ADME. As to conditions: ICR/CD-1, cryopreserved hepatocyte suspensions, pH 7.4, female. On the procedure: (§5) Cells were stored in the vapour phase of liquid nitrogen and thawed as per the supplier's instructions (rapid thawing at 37 °C, followed by centrifugation at 50 ×g for 5 min in thawing medium). Hepatocytes were re-suspended in a small volume of incubation medium (WME buffered with HEPES (final concentration 24 mM) adjusted to pH 7.4). Cell density was estimated using a haemocytometer and light microscope and viability determined according to the trypan blue exclusion method; cells were subsequently diluted to the required concentration in incubation medium. […]
as §3, §4

The nature of data set [6]: CLint in cryopreserved dog hepatocyte suspensions. In kind it is in vitro ADME. As to conditions: Beagle. As to the method: as §5, §3, §4
Data set [7] can be described thus: CLint in cryopreserved minipig hepatocyte suspensions. In kind it is in vitro ADME. As to conditions: Gottingen. On the procedure:
as §5, §3, §4

Another data set has as its system CYP3A4. Details: method as in Bavetsias et al., 2012. As to conditions: ref Bavetsias et al., 2012; read-out: CYP3A4 inhibition IC50; cited from earlier work.
The next data set concerns CYP2C9. Details: method as in Bavetsias et al., 2012. The note with it: ref Bavetsias et al., 2012; read-out: CYP2C9 inhibition IC50; cited from earlier work.
Another data set relates to rCYP3A4. In words: Reaction phenotyping using recombinant CYP, CLint in rCYP3A4. In kind it is in vitro ADME, human. As to conditions: scaled with ISEF 1.09 and CYP abundance 137 pmol P450/mg; corrected for fuCYP. As to the method: as §1
Recombinant CYP (100 pmol P450/ml) and control bactosome (at an equivalent protein concentration) were prepared in 100 mM KPB. […] The reaction was initiated by the addition of NADPH (final concentration 1 mM) and allowed to proceed for 20 min. At T0 (see Section 2.4.1), 0.5, 5, 10, 15 and 20 min, an aliquot was removed from each incubation and quenched in ice cold methanol containing internal standard.
CLint in rCYP was calculated using Eq. (3) and scaled to μl/min/mg microsomal protein using Eq. (4).(3) CLintμl/min/pmolP450=V·k/pmol protein (4) CLintμl/min/mgmicrosomal protein=CLintμl/min/pmolP450·ISEF·CYPabundance where ISEF is the Intersystem Extrapolation Factor and CYP abundance is amount of each CYP relative to microsomal protein. For rCYP3A4 an ISEF of 1.09 ([Certara, 2017]) and a CYP abundance of 137 pmol P450/mg microsomal protein ([Certara, 2017]) were used.
Unbound CLint (CLint,u) was calculated using Eq. (6).(6) CLint,u=CLint/fu

Data set [8] is described as follows: CLint in cryopreserved rat hepatocyte suspensions. It counts as in vitro ADME. As to conditions: Sprague Dawley, pH 7.4, female. As to the method: as §5, §3, §4
Data set [9] is described as follows: Protein binding in HLM (Rapid Equilibrium Dialysis). As to conditions: human, liver microsomes, HLM 1 mg/ml, dialysis 4 h at 37 °C, read-out: fumic (fraction unbound in microsomes). It counts as in vitro ADME. On the procedure:
Samples were removed, matrix matched and quenched with methanol containing internal standard; further processing is as described in Section 2.6.
The fraction unbound (fu) in HLM/rCYP was calculated using Eq. (5).(5) fu=1/1+1/PARreceiver/PARdonor−1 where PAR = Peak Area Ratio of analyte/internal standard.
In general terms: In equilibrium dialysis only unbound substance equilibrates across the membrane.

Data set [10] has as its system MV4-11 (human FLT3-ITD positive AML). Details: method as in Bavetsias et al., 2012. The note with it: ref Bavetsias et al., 2012; cited from earlier work.

We go through one molecule from article PMC6892276 (European Journal of Pharmaceutical Sciences, 2019).

Usually microsomal CLint stands for the rate of metabolic loss divided by the concentration. Usually hepatocyte CLint stands for the capacity of the preparation to metabolise the compound, expressed as a volume cleared per time. A high value points to rapid turnover. In general, IC50 refers to the concentration that gives 50% inhibition. As usually defined, the fraction unbound is the share of the substance not bound to proteins or other matrix.

Turning to `Cc1nn(C)cc1-c1nc2c(N3CCN(Cc4ccc(Cl)cc4)CC3)c(Cl)cnc2[nH]1` [CCT241736, 6-Chloro-7-(4-(4-chlorobenzyl)piperazin-1-yl)-2-(1,3-dimethyl-1Hpyrazol-4-yl)-3H-imidazo[4,5-b] pyridine], the microsomal CLint at 1 μM in [1] (female) was found to be 5.1 ± 1.1 µL/min/mg; in data set [1] (male), 5.5 ± 0.9 µL/min/mg; in [2] (female), 9.5 ± 2.2 µL/min/mg; in data set [2] (male) it was 7.4 ± 1.4 µL/min/mg. Besides, the anti-proliferative activity entry in [3] and in data set [10] was “anti-proliferative activity” in each case. Besides, in [4], the oral bioavailability is 79–100%. Moreover, the hepatocyte CLint at 1 μM in data set [5] stood at 91 µL/min/1e6 cells; in data set [6] (pH 7.4, female), 3.9 µL/min/1e6 cells; in data set [6] (pH 7.4, male) it was 8.4 µL/min/1e6 cells; in [7] (pH 7.4, female), 3.4 µL/min/1e6 cells; in data set [7] (pH 7.4, male) it was 7 µL/min/1e6 cells; in data set [8], 10 µL/min/1e6 cells. The IC50 in the data set with CYP3A4 and in the data set with CYP2C9 was greater than 10 µM throughout. Further, the “scaled CLint,u in rCYP3A4” value in the data set on rCYP3A4 is reported as 4078 μl/min/mg microsomal protein. The fraction unbound at 4 h, 1 μM in data set [9] is 0.0018.
